US5965088A, “Method for providing rapid disinfection of contact lenses” (priority 1997, dated 1999)
Like-named read-outs stand apart in the source and are kept apart here.

Tested on: Staphylococcus aureus (ATCC 6538)
Assay: Antimicrobial efficacy (stand-alone log reduction), S. aureus
Assay type: cell-based
Conditions: for log reduction at 4 ppm / log reduction at 1 ppm / log reduction at 2 ppm / log reduction at 3 ppm / log reduction at 5 ppm / log reduction at 4 µg/mL: Staphylococcus aureus; for log reduction at 4 µg/mL: 4.0 ppm alexidine in ReNu MPS
Protocol: This Example illustrates the microbiocidal efficacy of solutions according to the present invention. The antimicrobial efficacy of each of various compositions for the chemical disinfection of contact lenses was evaluated. Microbial challenge inoculums were prepared using Pseudomonas aeruginosa (ATCC 9027), Staphylococcus aureus (ATCC 6538), Serratia marcescens (ATCC 13880), Candida albicans (ATCC 10231), and Fusarium solani (ATCC 36031). The test organisms were cultured on appropriate agar and the cultures were harvested using sterile DPBST (Dulbecco's Phosphate Buffered Saline plus 0.05% w/v polysorbate 80) or a suitable diluent and transferred to a suitable vessel. Spore suspensions were filtered through sterile glass wool to remove hyphal fragments. Serratia marcescens, as appropriate, was filtered (eg., through a 1.2 μ filter) to clarify the suspension. After harvesting, the suspension was centrifuged at no more than 5000× g for a maximum of 30 minutes at 20-25° C. The supernatant was poured off and resuspended in DPBST or other suitable diluent. The suspension was centrifuged a second time, and resuspended in DPBST or other suitable diluent. All challenge bacterial and fungal cell suspensions were adjusted with DPBST or other suitable diluent to 1×10^7 -10^8 cfu/mL. The appropriate cell concentration may be estimated by measuring the turbidity of the suspension, for example using a spectrophotometer at a preselected wavelength, for example 490 nm. One tube was prepared containing a minimum of 10 mL of test solution per challenge organism. Each tube of the solution to be tested was inoculated with a suspension of the test organism sufficient to provide a final count of 1.0×10^5 -10^6 cfu/mL, the volume of the inoculum not exceeding 1% of the sample volume. Dispersion of the inoculum was ensured by vortexing the sample for at least 15 seconds. The inoculated product was stored at 10-25° C. Aliquots in the amount of 1.0 mL were taken of the inoculated product for determination of viable counts after certain time periods of disinfection. The time points for the bacteria were 25, 50, 75, and 100% of the minimum disinfection time. Yeast and mold were tested at an additional timepoint of at least 400% of the minimum disinfection time. The suspension was mixed well by vortexing vigorously for at least 5 second. The 1.0 mL aliquots removed at the specified time intervals were subjected to a suitable series of decimal dilutions in validated neutralizing media. The suspensions were mixed vigorously and incubated for a suitable period of time to allow for neutralization of the microbial agent. The viable count of organisms was determined in appropriate dilutions by preparation of triplicate plates of trypticase soy (TSA) agar for bacteria and Sabouraud dextrose agar (SDA) for mold and yeast. The bacterial recovery plates were incubated at 30-35° C. for 2-4 days. The yeast was incubated at 20-30° C. for 2-4 days and mold recovery plates at 20-25° C. for 3-7 days. The average number of colony forming units was determined on countable plates. Countable plates refer to 30-300 cfu/plates for bacteria and yeast, and 8 to 80 cfu/plate for mold except when colonies are observed only for the 10^0 or 10^-1 dilution plates. The microbial reduction was then calculated at the specified time points. […] Following inoculation in a validated neutralizing broth and incubation for an appropriate period of time, the inoculum control must be between 1.0×10^5 -1.0×10^6 cfu/mL
The solutions were evaluated based on the performance requirement referred to as the "Stand-Alone Procedure for Disinfecting Products" (hereafter the "stand-alone test") and is based on the Disinfection Efficacy Testing for contact lens care products under the Draft Premarket Notification (510(k)) Guidance Document For Contact Lens Care Products dated Apr. 1, 1996, prepared by the U.S. Food and Drug Administration, Division of Ophthalmic Devices. […]

SMILES: CCCCC(CC)CNC(=N)NC(=N)NCCCCCCNC(=N)NC(=N)NCC(CC)CCCC.Cl.Cl (centres unmarked) [Alexidine.2HCl, 1,1 '-hexamethylenebis(5-(2-ethylhexyl)-biguanide) dihydrochloride]
- stand-alone test, 15 minute time point (4.0 ppm, Example 6, 15 min): the 15 minute time point failed
- log reduction at 4 ppm (ATCC6538, 2.5 min): 2
- log reduction at 4 ppm (ATCC6538, 2.5 min, 4.0 ppm, aged 18 months, Exp. 1, 2.5 min, read-out: Log Reduction): 2.2
- log reduction at 4 ppm (ATCC6538, 2.5 min, 4.0 ppm, aged 18 months, Exp. 2, 2.5 min, read-out: Log Reduction): 1.6
- log reduction at 1 ppm (ATCC6538, 5 min, 1.0 ppm, read-out: Log Reduction at 5 Minutes): 0.7
- log reduction at 2 ppm (ATCC6538, 5 min, 2.0 ppm, read-out: Log Reduction at 5 Minutes): 1.6
- log reduction at 3 ppm (ATCC6538, 5 min, 3.0 ppm, read-out: Log Reduction at 5 Minutes): 2.6
- log reduction at 4 ppm (ATCC6538, 5 min, 4.0 ppm, aged 18 months, Exp. 1, 5.0 min, read-out: Log Reduction): 2.7
- log reduction at 4 ppm (ATCC6538, 5 min, 4.0 ppm, aged 18 months, Exp. 2, 5.0 min, read-out: Log Reduction): 2
- log reduction at 4 ppm (ATCC6538, 5 min, 4.0 ppm, aged 18 months, Exp. 3, 5.0 min, read-out: Log Reduction): 2.8
- log reduction at 4 ppm (ATCC6538, 5 min, 4.0 ppm, read-out: Log Reduction at 5 Minutes): 4.8
- log reduction at 5 ppm (ATCC6538, 5 min, 5.0 ppm, read-out: Log Reduction at 5 Minutes): 4.8
- log reduction at 4 ppm (ATCC6538, 0.125 h): 2.3
- log reduction at 4 ppm (ATCC6538, 0.125 h, 4.0 ppm, aged 18 months, Exp. 1, 7.5 min, read-out: Log Reduction): 3.1
- log reduction at 4 ppm (ATCC6538, 0.125 h, 4.0 ppm, aged 18 months, Exp. 3, 7.5 min, read-out: Log Reduction): 3.4
- log reduction at 1 ppm (ATCC6538, 10 min, 1.0 ppm, read-out: Log Reduction at 10 Minutes): 1
- log reduction at 2 ppm (ATCC6538, 10 min, 2.0 ppm, read-out: Log Reduction at 10 Minutes): 2.6
- log reduction at 3 ppm (ATCC6538, 10 min, 3.0 ppm, read-out: Log Reduction at 10 Minutes): 4
- log reduction at 4 ppm (ATCC6538, 10 min, 4.0 ppm, aged 18 months, Exp. 1, 10.0 min, read-out: Log Reduction): 3.5
- log reduction at 4 ppm (ATCC6538, 10 min, 4.0 ppm, aged 18 months, Exp. 2, 10.0 min, read-out: Log Reduction): 2.7
- log reduction at 4 ppm (ATCC6538, 10 min, 4.0 ppm, aged 18 months, Exp. 3, 10.0 min, read-out: Log Reduction): 3.9
- log reduction at 4 ppm (ATCC6538, 10 min, 4.0 ppm, read-out: Log Reduction at 10 Minutes): 4.8
- log reduction at 5 ppm (ATCC6538, 10 min, 5.0 ppm, read-out: Log Reduction at 10 Minutes): > 4.8
- log reduction at 4 ppm (ATCC6538, 0.25 h, 4.0 ppm, Ex. 6, aged 19 months at 25 °C, 15 min, read-out: Log Reduction): 2.5
- log reduction at 4 ppm (ATCC6538, 0.25 h, 4.0 ppm, Ex. 7, different lot aged 18 months, 15 min, read-out: Log Reduction): 3.7
- log reduction at 4 ppm (ATCC6538, 0.25 h, 4.0 ppm, Ex. 8, different batch aged 19 months at 25 °C, 15 min, read-out: Log Reduction): 3.5
- log reduction at 4 ppm (ATCC6538, 0.5 h, 4.0 ppm, Ex. 6, aged 19 months at 25 °C, 30 min, read-out: Log Reduction): 4.4
- log reduction at 4 ppm (ATCC6538, 0.5 h, 4.0 ppm, Ex. 7, different lot aged 18 months, 30 min, read-out: Log Reduction): 4.7
- log reduction at 4 ppm (ATCC6538, 0.5 h, 4.0 ppm, Ex. 8, different batch aged 19 months at 25 °C, 30 min, read-out: Log Reduction): > 4.9
- log reduction at 4 ppm (ATCC6538, 0.75 h, 4.0 ppm, Ex. 6, aged 19 months at 25 °C, 45 min, read-out: Log Reduction): > 4.9
- log reduction at 4 ppm (ATCC6538, 0.75 h, 4.0 ppm, Ex. 7, different lot aged 18 months, 45 min, read-out: Log Reduction): > 4.8
- log reduction at 4 ppm (ATCC6538, 0.75 h, 4.0 ppm, Ex. 8, different batch aged 19 months at 25 °C, 45 min, read-out: Log Reduction): > 4.9
- log reduction at 1 ppm (ATCC6538, 1 h, 1 ppm, 1 hr, read-out: Log Reduction): 1.6
- log reduction at 2 ppm (ATCC6538, 1 h, 2 ppm, 1 hr, read-out: Log Reduction): 4.3
- log reduction at 3 ppm (ATCC6538, 1 h, 3 ppm, 1 hr, read-out: Log Reduction): > 4.8
- log reduction at 4 µg/mL (ATCC6538, 1 h, 1 hr): > 4.9
- log reduction at 4 ppm (ATCC6538, 1 h, 4 ppm, 1 hr, read-out: Log Reduction): > 4.8
- log reduction at 4 ppm (ATCC6538, 1 h, 4.0 ppm, Ex. 6, aged 19 months at 25 °C, 60 min, read-out: Log Reduction): > 4.9
- log reduction at 4 ppm (ATCC6538, 1 h, 4.0 ppm, Ex. 7, different lot aged 18 months, 60 min, read-out: Log Reduction): > 4.8
- log reduction at 4 ppm (ATCC6538, 1 h, 4.0 ppm, Ex. 8, different batch aged 19 months at 25 °C, 60 min, read-out: Log Reduction): > 4.9
- log reduction at 5 ppm (ATCC6538, 1 h, 5 ppm, 1 hr, read-out: Log Reduction): > 4.8
- log reduction at 4 µg/mL (ATCC6538, 2 h, 2 hr): > 4.9
- log reduction at 4 µg/mL (ATCC6538, 3 h, 3 hr): > 4.9
- log reduction at 4 µg/mL (ATCC6538, 4 h, 4 hr): > 4.9
